# Where “and” joins values, the source holds several entries; their conditions need not be identical. Equal entries are not always repeated.
# Columns and labels:
# [1] = Ratio of the inhibition of MAO using [14C]-PEA and [14C]5-HT in rat brain; type: tissue-based
# Rattus norvegicus [2] = species on record: Rattus norvegicus; assay: The lowest dose that release NE causing reversal of ptosis in rat; type: functional
# Rattus norvegicus [3] = species on record: Rattus norvegicus; assay: The lowest dose that release DA causing increased motor activity in rat; type: functional
# [4] = target: Norepinephrine transporter (Rattus norvegicus, UniProt Q9WTR4); assay: In vitro inhibition of NE uptake at NE uptake site; type: functional
# Chain of Norepinephrine transporter (Q9WTR4 whole entry): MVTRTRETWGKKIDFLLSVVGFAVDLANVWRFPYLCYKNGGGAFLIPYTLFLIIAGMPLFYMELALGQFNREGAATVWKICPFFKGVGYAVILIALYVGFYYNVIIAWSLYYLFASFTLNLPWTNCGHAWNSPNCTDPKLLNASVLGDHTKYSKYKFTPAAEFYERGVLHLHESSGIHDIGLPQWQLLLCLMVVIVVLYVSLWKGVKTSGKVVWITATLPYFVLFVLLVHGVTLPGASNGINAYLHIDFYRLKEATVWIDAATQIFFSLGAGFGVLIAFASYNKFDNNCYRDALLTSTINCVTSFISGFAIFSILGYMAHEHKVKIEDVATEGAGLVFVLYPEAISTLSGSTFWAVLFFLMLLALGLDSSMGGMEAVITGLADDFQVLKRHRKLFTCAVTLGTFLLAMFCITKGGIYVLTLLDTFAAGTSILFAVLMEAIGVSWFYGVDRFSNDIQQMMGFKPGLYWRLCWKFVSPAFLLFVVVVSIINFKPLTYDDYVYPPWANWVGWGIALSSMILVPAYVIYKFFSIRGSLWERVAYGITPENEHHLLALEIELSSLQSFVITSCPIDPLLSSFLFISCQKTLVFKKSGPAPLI
# Monoamine oxidase [5] = target: T1, Monoamine oxidase (Rattus norvegicus, UniProt P19643+P21396); assay: Compound was tested in vitro for inhibition of MAO by using [14C]phenylethylamine as substrate in rat brain mitochondrial preparation; type: tissue-based
# T1 sequence (P19643 whole entry): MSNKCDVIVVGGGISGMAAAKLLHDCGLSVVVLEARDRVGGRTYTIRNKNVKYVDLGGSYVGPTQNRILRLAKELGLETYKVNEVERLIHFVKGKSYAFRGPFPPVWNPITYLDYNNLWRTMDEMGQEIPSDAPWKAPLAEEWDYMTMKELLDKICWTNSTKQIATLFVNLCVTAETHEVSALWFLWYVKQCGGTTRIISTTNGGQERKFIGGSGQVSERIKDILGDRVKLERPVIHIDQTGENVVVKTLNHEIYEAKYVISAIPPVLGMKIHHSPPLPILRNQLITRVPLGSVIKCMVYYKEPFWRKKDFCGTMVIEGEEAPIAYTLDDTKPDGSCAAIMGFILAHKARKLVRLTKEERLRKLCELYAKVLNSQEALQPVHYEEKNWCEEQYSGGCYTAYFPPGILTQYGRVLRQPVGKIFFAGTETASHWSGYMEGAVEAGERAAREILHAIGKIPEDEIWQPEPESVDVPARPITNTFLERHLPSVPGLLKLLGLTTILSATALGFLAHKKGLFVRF
# T1 sequence (P21396 whole entry): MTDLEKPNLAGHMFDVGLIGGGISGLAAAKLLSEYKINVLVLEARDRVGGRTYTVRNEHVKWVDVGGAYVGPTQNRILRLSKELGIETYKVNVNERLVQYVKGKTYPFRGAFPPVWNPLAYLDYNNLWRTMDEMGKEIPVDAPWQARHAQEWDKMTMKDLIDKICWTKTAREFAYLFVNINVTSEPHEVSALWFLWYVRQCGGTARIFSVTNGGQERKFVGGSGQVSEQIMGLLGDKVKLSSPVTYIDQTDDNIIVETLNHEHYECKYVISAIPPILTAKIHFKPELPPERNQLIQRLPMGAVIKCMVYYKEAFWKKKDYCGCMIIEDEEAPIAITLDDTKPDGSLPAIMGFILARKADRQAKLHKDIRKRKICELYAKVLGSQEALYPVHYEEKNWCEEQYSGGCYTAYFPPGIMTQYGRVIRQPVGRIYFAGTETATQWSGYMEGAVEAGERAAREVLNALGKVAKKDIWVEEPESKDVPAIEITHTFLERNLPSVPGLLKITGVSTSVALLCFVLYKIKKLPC
# [6] = target: Sodium-dependent dopamine transporter (Rattus norvegicus, UniProt P23977); assay: In […] inhibition of DA uptake at dopamine uptake site; type: functional
# Chain of Sodium-dependent dopamine transporter (P23977 whole entry): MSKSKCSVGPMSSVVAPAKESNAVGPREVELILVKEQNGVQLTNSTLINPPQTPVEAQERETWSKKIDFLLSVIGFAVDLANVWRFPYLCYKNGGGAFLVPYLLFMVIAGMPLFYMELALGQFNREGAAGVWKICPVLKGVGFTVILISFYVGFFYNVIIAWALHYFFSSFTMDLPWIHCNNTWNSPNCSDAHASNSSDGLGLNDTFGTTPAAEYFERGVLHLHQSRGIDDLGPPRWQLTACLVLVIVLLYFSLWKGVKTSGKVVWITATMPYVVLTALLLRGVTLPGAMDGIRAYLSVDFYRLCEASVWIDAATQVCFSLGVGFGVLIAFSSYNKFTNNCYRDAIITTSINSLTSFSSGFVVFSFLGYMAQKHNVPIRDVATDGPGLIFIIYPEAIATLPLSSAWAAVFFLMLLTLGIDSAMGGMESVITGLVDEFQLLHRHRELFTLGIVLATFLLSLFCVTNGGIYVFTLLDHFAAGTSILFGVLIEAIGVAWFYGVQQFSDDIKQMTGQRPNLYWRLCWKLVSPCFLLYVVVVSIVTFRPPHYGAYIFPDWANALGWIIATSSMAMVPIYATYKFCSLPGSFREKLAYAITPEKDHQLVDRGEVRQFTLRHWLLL
# [7] = Ratio of inhibition of MAO activity remaining outside (EN) and inside (N) synaptosomes; type: subcellular; details: Brain
# [8] = target: Sodium-dependent serotonin transporter (Rattus norvegicus, UniProt P31652); assay: Compound was tested in vitro for inhibition of Serotonin transporter uptake at serotonin uptake site
# Chain of Sodium-dependent serotonin transporter (P31652 whole entry): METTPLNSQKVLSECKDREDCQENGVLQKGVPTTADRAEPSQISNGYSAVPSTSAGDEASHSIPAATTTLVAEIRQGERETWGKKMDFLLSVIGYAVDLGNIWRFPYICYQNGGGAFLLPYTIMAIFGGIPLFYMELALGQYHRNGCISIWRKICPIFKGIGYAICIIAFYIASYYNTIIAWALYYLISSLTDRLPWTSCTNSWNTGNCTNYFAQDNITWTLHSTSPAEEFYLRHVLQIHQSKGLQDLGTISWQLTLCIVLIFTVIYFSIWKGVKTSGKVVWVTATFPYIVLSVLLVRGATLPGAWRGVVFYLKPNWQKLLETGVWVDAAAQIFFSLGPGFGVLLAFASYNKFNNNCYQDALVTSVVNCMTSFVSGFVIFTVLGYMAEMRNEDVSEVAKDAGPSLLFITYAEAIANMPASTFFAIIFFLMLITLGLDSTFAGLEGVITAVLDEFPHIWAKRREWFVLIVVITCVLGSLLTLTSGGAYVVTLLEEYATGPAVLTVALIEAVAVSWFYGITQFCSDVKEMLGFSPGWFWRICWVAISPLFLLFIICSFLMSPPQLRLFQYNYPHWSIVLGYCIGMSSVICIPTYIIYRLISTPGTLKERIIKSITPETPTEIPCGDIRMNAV
# Rattus norvegicus [9] = species on record: Rattus norvegicus; assay: The lowest dose that release 5-HT causing a serotonin syndrome in rat; type: functional
# Rattus norvegicus [10] = assay: Compound (po) was tested in vivo for inhibition of MAO activity remaining inside (N) 5-HT synaptosomes of rat hypothalamus.; type: functional
# Rattus norvegicus [11] = assay: Compound (po) was tested in vivo for inhibition of MAO activity remaining inside (N) DA synaptosomes of rat striatum; type: functional
# Monoamine oxidase [12] = target: T1, Monoamine oxidase; assay: Compound was tested in vitro for inhibition of MAO by using [14C]5-HT as substrate in rat brain mitochondrial preparation; type: tissue-based
# Rattus norvegicus [13] = assay: (§1) Compound (po) was tested in vivo for inhibition of MAO activity remaining outside (EN) DA synaptosomes of rat striatum; type: functional
# Rattus norvegicus [14] = assay: Compound (po) was tested in vivo for inhibition of MAO activity remaining inside (N) NE synaptosomes of rat hypothalamus; type: functional
# Monoamine oxidase [15] = target: T1, Monoamine oxidase; assay: Compound was tested in vitro for inhibition of Monoamino oxidase by using [14C]phenylethylamine as substrate in rat brain mitochondrial preparation; type: tissue-based
# Rattus norvegicus [16] = assay: Compound (po) was tested in vivo for inhibition of Monoamino oxidase activity remaining inside (N) 5-HT synaptosomes of rat hypothalamus.; type: functional
# Monoamine oxidase [17] = target: T1, Monoamine oxidase; assay: Compound was tested in vitro for inhibition of Monoamino oxidase by using [14C]5-HT as substrate in rat brain mitochondrial preparation; type: tissue-based
# Rattus norvegicus [18] = assay: Compound (po) was tested in vivo for inhibition of MAO activity remaining outside (EN) 5-HT synaptosomes of rat hypothalamus.; type: functional
# [19] = as §1; type: functional
SMILES,Ratio [1],ED50 (Rattus norvegicus [2]),ED50 (Rattus norvegicus [3]),IC50 [4],IC50 (Monoamine oxidase [5]),IC50 [6],Ratio [7],IC50 [8],ED50 (Rattus norvegicus [9]),ED50 (Rattus norvegicus [10]),ED50 (Rattus norvegicus [11]),IC50 (Monoamine oxidase [12]),ED50 (Rattus norvegicus [13]),ED50 (Rattus norvegicus [14]),IC50 (Monoamine oxidase [15]),ED50 (Rattus norvegicus [16]),IC50 (Monoamine oxidase [17]),ED50 (Rattus norvegicus [18]),ED50 [19]
CC(N)Cc1ccc2c(c1)CCN2 (configuration not stated),> 20,17 µmol/kg,42 µmol/kg,0.36 µM,> 100 µM,3.8 µM,> 15 and > 31 and 25,1.8 µM,42 µmol/kg,1.8 µmol/kg,0.8 µmol/kg,5 µM,20 µmol/kg,1.1 µmol/kg,,,,,
CCC(N)Cc1ccc2c(c1Cl)CCN2 (configuration not stated),,> 112 µmol/kg,> 112 µmol/kg,1.6 µM,,> 10 µM,2 (2×) and 2.3,0.3 µM,28 µmol/kg,9.1 µmol/kg,12 µmol/kg,,28 µmol/kg,11 µmol/kg,,,,,
CCN1CCc2c1ccc(CC(C)N)c2C (configuration not stated),> 455,> 87 µmol/kg,> 87 µmol/kg,7.5 µM,> 500 µM,> 10 µM,,1.5 µM,87 µmol/kg,13 µmol/kg,10 µmol/kg,1.1 µM,16 µmol/kg,9 µmol/kg,,,,,
CCC(N)Cc1ccc2c(c1)CCN2 (configuration not stated),57,128 µmol/kg,> 256 µmol/kg,0.5 µM,,10 µM,,3.6 µM,64 µmol/kg,,26 µmol/kg,,74 µmol/kg,32 µmol/kg,800 µM,11 µmol/kg,14 µM,,
CC(C)(N)Cc1ccc2c(c1)CCN2,929,64 µmol/kg,> 256 µmol/kg,2.7 µM,2600 µM,> 10 µM,,1.9 µM,128 µmol/kg,4.4 µmol/kg,8 µmol/kg,2.8 µM,36 µmol/kg,12 µmol/kg,,,,,
Cc1cc2c(cc1CC(C)N)CCN2 (configuration not stated),13,> 61 µmol/kg,> 61 µmol/kg,6 µM,170 µM,6 µM,> 1,> 16 µM,> 61 µmol/kg,> 61 µmol/kg,> 61 µmol/kg,13 µM,> 61 µmol/kg,49 µmol/kg,,,,,
Cc1c(CC(C)N)ccc2c1CCN2 (configuration not stated),> 625,128 µmol/kg,> 128 µmol/kg,0.75 µM,> 500 µM,9 µM,,0.38 µM,64 µmol/kg,0.8 µmol/kg,4.6 µmol/kg,0.8 µM,13 µmol/kg,1.1 µmol/kg,,,,,
CCN1CCc2cc(CC(C)N)c(C)cc21 (configuration not stated),233,87 µmol/kg,> 87 µmol/kg,2.5 µM,77 µM,> 10 µM,> 3 and 1.4,2.2 µM,> 87 µmol/kg,> 27 µmol/kg,12 µmol/kg,0.33 µM,,17 µmol/kg,,,,> 27 µmol/kg,17 µmol/kg
Cc1cc(N(C)C)ccc1CC(C)N (configuration not stated),> 1250,15 µmol/kg,> 300 µmol/kg,0.65 µM,> 1000 µM,> 10 µM,,0.1 µM,7.5 µmol/kg,1.1 µmol/kg,3.3 µmol/kg,0.8 µM,4.4 µmol/kg,2 µmol/kg,,,,,
CC(N)Cc1ccc2c(c1Cl)CCN2 (configuration not stated),4000,59 µmol/kg,> 59 µmol/kg,0.32 µM,800 µM,> 10 µM,,0.34 µM,59 µmol/kg,1.5 µmol/kg,2.2 µmol/kg,0.2 µM,4.1 µmol/kg,1.6 µmol/kg,,,,,
